In general, EC50 refers to the concentration that produces a half-maximal response.

The experiment addresses Glutamate receptor 2 (Homo sapiens, UniProt P42262). Put plainly: Positive allosteric modulation of GluA2Q flop isoform (unknown origin) expressed in HEK293 cells assessed as increase in L-glutamate induced calcium flux after 1 hr by fluo-4AM dye-based fluorescence assay. In general terms: Calcium assays in cells follow changes in intracellular calcium, usually with a dye or a luminescent sensor.

Chain of Glutamate receptor 2 (P42262 whole entry, canonical isoform): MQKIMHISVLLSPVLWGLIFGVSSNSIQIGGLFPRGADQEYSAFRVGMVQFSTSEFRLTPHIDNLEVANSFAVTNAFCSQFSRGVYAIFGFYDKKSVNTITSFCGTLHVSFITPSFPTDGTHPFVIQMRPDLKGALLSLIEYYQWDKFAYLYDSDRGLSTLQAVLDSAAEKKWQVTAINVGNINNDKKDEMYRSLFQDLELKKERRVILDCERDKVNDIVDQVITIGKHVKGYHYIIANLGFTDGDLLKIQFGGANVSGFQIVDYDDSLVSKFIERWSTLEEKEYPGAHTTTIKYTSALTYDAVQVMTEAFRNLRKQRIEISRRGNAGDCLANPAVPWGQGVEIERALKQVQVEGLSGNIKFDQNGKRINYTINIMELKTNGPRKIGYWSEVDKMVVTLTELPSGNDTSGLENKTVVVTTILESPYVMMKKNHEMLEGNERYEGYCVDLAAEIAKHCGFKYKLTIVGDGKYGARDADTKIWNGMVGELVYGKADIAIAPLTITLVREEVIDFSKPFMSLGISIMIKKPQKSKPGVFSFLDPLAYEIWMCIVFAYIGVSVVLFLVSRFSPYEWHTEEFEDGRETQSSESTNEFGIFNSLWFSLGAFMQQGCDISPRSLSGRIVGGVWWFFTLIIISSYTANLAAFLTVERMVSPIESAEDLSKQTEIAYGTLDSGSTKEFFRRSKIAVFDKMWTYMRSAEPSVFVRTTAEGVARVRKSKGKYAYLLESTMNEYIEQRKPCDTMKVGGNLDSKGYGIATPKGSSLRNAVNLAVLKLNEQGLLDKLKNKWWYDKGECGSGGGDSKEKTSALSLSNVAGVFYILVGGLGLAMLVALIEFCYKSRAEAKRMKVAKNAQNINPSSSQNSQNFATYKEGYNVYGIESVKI

In the case of `O=S1(=O)NCN(C2CC2)c2cc(CCc3ccc4c(c3)N(C3CC3)CNS4(=O)=O)ccc21`, the EC50 was 1.3 nM.

The values above are taken from BindingDB's records for doi:10.1021/acs.jmedchem.8b00250 (University of Liege, 2018).
